The target of the data set is APOL1. The settings on record: ASO.

For 60 sequences, target mRNA inhibition results are on record in the OligoGym collection.

Values joined by “and” are separate entries in the source; they are usually repeats but may differ in a detail not shown here. Equal entries are not always repeated. After the bases stand the sugars from the 5' end (letter, count) and the backbone: PS all phosphorothioate, else s phosphorothioate and o phosphodiester by linkage. Methylation of C is not given here. e = 2'-O-(2-methoxyethyl) (MOE); k = constrained ethyl (cEt); d = 2'-deoxy (DNA)

For “GTATTTCTTGATGTGG (sugars kkdddddkekeddddd, PS)”, the target mRNA inhibition reads like this: (A431, 0.0156 µM) 59%; (A431, 0.04 µM) 64%; (A431, 0.0625 µM) 89%; (A431, 0.25 µM) 97%; (A431, 1 µM) 98% and 99%; (A431, 2 µM) 98%.

The sequence “TCAGATGGGTACTTCT (sugars kkkddddkekekdddd, PS)” had a target mRNA inhibition (A431, 2 µM) of 50%.

For the sequence “AGCTTTAAACTCAGGT (sugars kdddddkekekddddd, PS)”, the target mRNA inhibition came out at 14% (A431, 0.0156 µM); 46% (A431, 0.0625 µM); 80% (A431, 0.25 µM); 92% (A431, 1 µM); 95% (A431, 2 µM).

On to “CGTCAATATATTCTTT (sugars kkddddekekeddddd, PS)”, for which the target mRNA inhibition (A431, 2 µM) is 90%.

The sequence “GTTCAAAAGCAGCATT (sugars kkkddddkekekdddd, PS)” gave a target mRNA inhibition (A431, 2 µM) of 24%.

“GGTTCAAAAGCAGCAT (sugars k3 d4 k3 e1 d5, PS)” yielded a target mRNA inhibition (A431, 2 µM) of 74%.

Take “ATTCTCATGGTACAGG (sugars k3 d4 k3 e1 d5, PS)”: the target mRNA inhibition came out at 17% (A431, 0.0156 µM); 48% (A431, 0.0625 µM); 72% (A431, 0.25 µM); 88% (A431, 1 µM); 93% (A431, 2 µM).

For the sequence TAAGTGCTTTGATTCG (sugars k4 d9 k3, PS), the target mRNA inhibition (A431, 0.0625 µM) was 64% and 82%; the target mRNA inhibition (A431, 0.25 µM) is 87% and 92%; the target mRNA inhibition (A431, 1 µM) was 94% and 96%.

“GTTCAAAAGCAGCATT (sugars k3 d4 k3 e1 d5, PS)” showed a target mRNA inhibition (A431, 2 µM) of 80%.

Consider “TATTTCTTGATGTGGT (sugars kkddddkekekddddd, PS)”, for which the target mRNA inhibition by setting is: (A431, 0.0156 µM) 44%; (A431, 0.0625 µM) 77%; (A431, 0.25 µM) 92%; (A431, 1 µM) 96%; (A431, 2 µM) 97%.

For the sequence GAACGCAATGCTGACT (sugars k3 d10 k3, PS), the target mRNA inhibition was 14% (A431, 0.0625 µM); 50% (A431, 0.25 µM); 76% (A431, 1 µM).

For the sequence “GGTTCAAAAGCAGCAT (sugars kkkddddkekeddddd, PS)”, the target mRNA inhibition (A431, 2 µM) was 70%.

“GAAGCTTTAAACTCAG (sugars kkddddkekekddddd, PS)” yielded a target mRNA inhibition (A431, 2 µM) of 84%.

“GCAGTTTTGTAAGTGC (sugars k3 d4 k3 e1 d5, PS)” yielded a target mRNA inhibition (A431, 2 µM) of 76%.

With “TTATATTTGATCCTCA (sugars kddddkekekeddddd, PS)”, the target mRNA inhibition (A431, 2 µM) turned out to be 39%.

For the setting “A431, 2 µM”, “ACGCAATGCTGACTTG (sugars kkddddkdkdkddddd, PS)” had a target mRNA inhibition of 85%.

The sequence “ACGCAATGCTGACTTG (sugars kdddddkekekddddd, PS)” displayed a target mRNA inhibition (A431, 2 µM) of 71%.

For the sequence “TATTTCTTGATGTGGT (sugars kkddddekekeddddd, PS)”, the target mRNA inhibition runs as follows: (A431, 0.0156 µM) 36%; (A431, 0.04 µM) 53% and 50%; (A431, 0.0625 µM) 66%; (A431, 0.25 µM) 90%; (A431, 1 µM) 98% and 96%; (A431, 2 µM) 99%.

Regarding “ACTTTATACCAGTGTC (sugars k3 d4 k3 e1 d5, PS)”, the target mRNA inhibition (A431, 2 µM) worked out at 58%.

“TTGTAAGTGCAACCAA (sugars kkddddkekekkdddd, PS)” displayed a target mRNA inhibition (A431, 2 µM) of 54%.

Turning to ACCCTCTTTATCCCCC (sugars k4 d9 k3, PS), the target mRNA inhibition is, setting by setting: (A431, 0.0625 µM) 53% and 39%; (A431, 0.25 µM) 82% and 65%; (A431, 1 µM) 92% and 81%.

“GTGAGTATTGTTTTTG (sugars kkddddekekeddddd, PS)” registered a target mRNA inhibition (A431, 2 µM) of 93%.

Turning to TCAGCTATGGAAATGC (sugars k4 d9 k3, PS), the target mRNA inhibition came to 45% (A431, 0.0625 µM); 78% (A431, 0.25 µM); 92% (A431, 1 µM).

Turning to AATTTTATGGAACCTC (sugars k3 d10 k3, PS), the target mRNA inhibition (A431, 0.0625 µM) came out at 37%; the target mRNA inhibition (A431, 0.25 µM) is 74%; the target mRNA inhibition (A431, 1 µM) was 90%.

Turning to TCAGCTAAGACCAGTG (sugars k4 d9 k3, PS), the target mRNA inhibition is 53% (A431, 0.0625 µM); 78% (A431, 0.25 µM); 89% (A431, 1 µM).

Take “TTTAAACTCAGGTGAC (sugars kddddkekekeddddd, PS)”: where the note is “A431, 2 µM”, the target mRNA inhibition turned out to be 43%.

For “TTCTATTAGAGGGCTA (sugars kdddddkekekddddd, PS)”, the target mRNA inhibition (A431, 2 µM) was 45%.

Take “AGTATTGTTTTTGTGG (sugars kkddddekekeddddd, PS)”: the target mRNA inhibition (A431, 2 µM) is 89%.

Under “A431, 2 µM”, “AGTATTGTTTTTGTGG (sugars kkddddkdkdkddddd, PS)” gave a target mRNA inhibition of 72%.

Consider “AGCTTTAAACTCAGGT (sugars kkkddddkdkdkdddd, PS)”, for which the target mRNA inhibition (A431, 2 µM) was determined as 74%.

In the case of CAAGGCTTTTGATGAC (sugars k4 d9 k3, PS), the target mRNA inhibition by setting is: (A431, 0.0625 µM) 28%; (A431, 0.25 µM) 58%; (A431, 1 µM) 75%.

Consider “CTGTTCTAACTCTTGG (sugars kkddddekekeddddd, PS)”, for which the target mRNA inhibition is, setting by setting: (A431, 0.0156 µM) 43%; (A431, 0.0625 µM) 64%; (A431, 0.25 µM) 83%; (A431, 1 µM) 92%; (A431, 2 µM) 97%.

The sequence “AAGCTTTAAACTCAGG (sugars kkkddddkekekdddd, PS)” showed a target mRNA inhibition (A431, 2 µM) of 16%.

Regarding “GCTAATTTTCTGACTG (sugars k3 d4 k3 e1 d5, PS)”, the target mRNA inhibition is 2% (A431, 0.0156 µM); 46% (A431, 0.0625 µM); 76% (A431, 0.25 µM); 87% (A431, 1 µM); 92% (A431, 2 µM).

With “GAGTATTGTTTTTGTG (sugars kkkddddkekeddddd, PS)”, under “A431, 2 µM”, the target mRNA inhibition stood at 81%.

As for TCCAGATGTGTTTAGG (sugars k4 d9 k3, PS), the target mRNA inhibition reads like this: (A431, 0.0625 µM) 82%; (A431, 0.25 µM) 89%; (A431, 1 µM) 94%.

Sequence “ATTCTATTAGAGGGCT (sugars kkddddekekeddddd, PS)” returned a target mRNA inhibition (A431, 2 µM) of 25%.

With “TTCTCATGGTACAGGA (sugars kkddddkekekkdddd, PS)”, for the setting “A431, 2 µM”, the target mRNA inhibition came to 20%.

Take “GAAGATTGGCTCTGGC (sugars kekddddeekkddddd, PS)”: the target mRNA inhibition (A431, 2 µM) was 87%.

Turning to “AGCTTTAAACTCAGGT (sugars kkdddddkekeddddd, PS)”, the target mRNA inhibition is, setting by setting: (A431, 0.0156 µM) 31%; (A431, 0.0625 µM) 53%; (A431, 0.25 µM) 79%; (A431, 1 µM) 92%; (A431, 2 µM) 94%.

In the case of “AGCTTTAAACTCAGGT (sugars kkddddkekekddddd, PS)”, the target mRNA inhibition (A431, 2 µM) is 87%.

For AGATGTGTTTAGGCAT (sugars k4 d9 k3, PS), the target mRNA inhibition reads like this: (A431, 0.0625 µM) 54%; (A431, 0.25 µM) 85%; (A431, 1 µM) 95%.

In turn, “TTTATACCAGTGTCTT (sugars kkkddddkekekdddd, PS)” came in with a target mRNA inhibition (A431, 2 µM) of 76%.

Where the note is “A431, 2 µM”, “GTTATGAAATTATTGG (sugars kkddddekekeddddd, PS)” gave a target mRNA inhibition of 68%.

Regarding “AGCTTTAAACTCAGGT (sugars k2 d4 e3 k2 d5, PS)”, the target mRNA inhibition (A431, 2 µM) came to 93%.

Turning to GTCTAAAGTAAACTGC (sugars k4 d9 k3, PS), the target mRNA inhibition reads like this: (A431, 0.25 µM) 65% and 83%; (A431, 1 µM) 81% and 89%.

Take “AGTTTTGTAAGTGCAA (sugars kkddddkdkdkddddd, PS)”: the target mRNA inhibition is 16% (A431, 0.0156 µM); 34% (A431, 0.0625 µM); 72% (A431, 0.25 µM); 85% (A431, 1 µM); 91% (A431, 2 µM).

With “TTGTAAGTGCAACCAA (sugars k3 d4 k3 e1 d5, PS)”, under “A431, 2 µM”, the target mRNA inhibition came to 78%.

CCTTATGCTTACTCCA (sugars k4 d9 k3, PS): the target mRNA inhibition is, setting by setting: (A431, 0.0625 µM) 68%; (A431, 0.25 µM) 82%; (A431, 1 µM) 93%.

Regarding CAGCTATGGAAATGCC (sugars k4 d9 k3, PS), the target mRNA inhibition worked out at 34% (A431, 0.0625 µM); 58% (A431, 0.25 µM); 79% (A431, 1 µM).

In the case of AAGGTTGTCCAGAGCT (sugars k4 d9 k3, PS), the target mRNA inhibition reads like this: (A431, 0.0625 µM) 28%; (A431, 0.25 µM) 27%; (A431, 1 µM) 65%.

“GTATTGTTTTTGTGGG (sugars kkddddkekekkdddd, PS)” registered a target mRNA inhibition (A431, 2 µM) of 39%.

For “GTTATGAAATTATTGG (sugars kdddddkekekddddd, PS)”, the target mRNA inhibition (A431, 2 µM) came to 73%.

“TTTATACCAGTGTCTT (sugars k2 d4 e4 k2 d4, PS)”: for the setting “A431, 2 µM”, the target mRNA inhibition was 89%.

On to “GCAATGCTGACTTGGC (sugars kkddddkekekkdddd, PS)”, for which the target mRNA inhibition came to 5% (A431, 0.0156 µM); 12% (A431, 0.0625 µM); 44% (A431, 0.25 µM); 80% (A431, 1 µM); 91% (A431, 2 µM).

For the sequence “CCGTCAATATATTCTT (sugars k2 d4 e3 k2 d5, PS)”, the target mRNA inhibition runs as follows: (A431, 0.0156 µM) 28%; (A431, 0.04 µM) 50%; (A431, 0.0625 µM) 61%; (A431, 0.25 µM) 86%; (A431, 1 µM) 96%; (A431, 2 µM) 98%.

Regarding “CAGTTTTGTAAGTGCA (sugars kkddddkdkdkddddd, PS)”, the target mRNA inhibition (A431, 0.04 µM) was 41%; the target mRNA inhibition (A431, 1 µM) came to 95%; the target mRNA inhibition (A431, 2 µM) was 95%.

With “ACTTTACATGCACGAT (sugars kkdddddddddekeke, PS)”, the target mRNA inhibition by setting is: (A431, 0.0156 µM) 8%; (A431, 0.0625 µM) 25%; (A431, 0.25 µM) 58%; (A431, 1 µM) 84%.

In the case of “CGCAATGCTGACTTGG (sugars kkkddddkekekdddd, PS)”, the target mRNA inhibition (A431, 2 µM) came to 68%.

Regarding “CTAATTTTCTGACTGT (sugars kkddddkdkdkddddd, PS)”, the target mRNA inhibition (A431, 2 µM) was determined as 84%.
